Here are results for three molecules from paper PMC1175996, “Guanine-nucleotide exchange on ribosome-bound elongation factor G initiates the translocation of tRNAs” (Journal of Biology, 2005).

Bounds are passed on as bounds.

The target in test [1] is T1, EF-G on 70S ribosome complexes (preT / postTerm) (Escherichia coli, UniProt P0A6M8).
T1 construct: gene fusA
Description: nitrocellulose filtration of ribosome-bound EF-G•[3H]-GDPNP. The class given is binding. The conditions noted are these: labelled compound; 2 μM EF-G; 92 nM postTerm or naked 70S ribosomes; 1 μM [3H]-GDPNP; 37°C.

The target of test [2] is T2, EF-G (free elongation factor G) (Escherichia coli, UniProt P0A6M8).
T2 construct: gene fusA; purified EF-G, free in solution (no ribosome)
Description: nitrocellulose filtration, Scatchard plot. The test is classed as binding.

Test [3] deals with T1, EF-G on 70S ribosome complexes (preT / postTerm). Description: translocation rate by RF2-dependent fMet-Ile release, EF-G recycling. The conditions noted are these: read-out: I50. The class given is biochemical.
Test [4] deals with T2, EF-G (free elongation factor G). Description: nitrocellulose filtration, chase of [3H]-GDP by purified unlabelled GTP. The test is classed as binding. The conditions noted are these: read-out: KGTP.

T1 sequence (P0A6M8 2-704, one chain of several): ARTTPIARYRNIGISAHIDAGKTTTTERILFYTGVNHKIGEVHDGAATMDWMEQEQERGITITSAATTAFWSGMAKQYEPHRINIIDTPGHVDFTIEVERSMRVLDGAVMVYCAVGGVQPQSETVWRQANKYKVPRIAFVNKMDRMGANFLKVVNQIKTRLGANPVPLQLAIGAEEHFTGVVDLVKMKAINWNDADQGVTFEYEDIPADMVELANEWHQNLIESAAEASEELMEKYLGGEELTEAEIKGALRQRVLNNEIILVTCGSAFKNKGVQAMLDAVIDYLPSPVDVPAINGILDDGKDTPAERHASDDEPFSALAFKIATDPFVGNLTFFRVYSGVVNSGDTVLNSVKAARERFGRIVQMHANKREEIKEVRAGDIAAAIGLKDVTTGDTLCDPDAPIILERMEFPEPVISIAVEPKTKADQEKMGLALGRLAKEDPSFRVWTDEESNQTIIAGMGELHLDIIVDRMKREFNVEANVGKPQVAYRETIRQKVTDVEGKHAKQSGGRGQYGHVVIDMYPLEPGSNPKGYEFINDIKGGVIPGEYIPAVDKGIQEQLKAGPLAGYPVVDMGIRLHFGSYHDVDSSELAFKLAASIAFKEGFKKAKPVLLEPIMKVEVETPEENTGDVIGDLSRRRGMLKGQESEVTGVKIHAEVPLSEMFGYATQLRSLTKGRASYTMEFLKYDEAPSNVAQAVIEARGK
T2 sequence (P0A6M8 2-704): as the sequence (P0A6M8 2-704, one chain of several) above

For `Nc1nc2c(ncn2[C@@H]2O[C@H](COP(=O)(O)OP(=O)(O)NP(=O)(O)O)[C@@H](O)[C@H]2O)c(=O)[nH]1` [GDPNP], the “nitrocellulose filtration of ribosome-bound EF-G•[3H]-GDPNP” value in test [1] is “EF-G, bound to either type of ribosome, had much higher affinity for GDPNP than for GDP”.

On to `Nc1nc2c(ncn2[C@@H]2O[C@H](COP(=O)(O)OP(=O)(O)O)[C@@H](O)[C@H]2O)c(=O)[nH]1` [GDP], for which the Kd in test [2] is roughly 9 µM. Moreover, the IC50 in test [3] turned out to be 250 µM.

`Nc1nc2c(ncn2[C@@H]2O[C@H](COP(=O)(O)OP(=O)(O)OP(=O)(O)O)[C@@H](O)[C@H]2O)c(=O)[nH]1` [GTP]: the Kd in test [4] was greater than 600 µM.
